# Measured values as given in PubChem BioAssay (NCI).
#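 Values below derive from 48-hour exposures of cells grown in 96-well plates, with endpoints linearly interpolated between the two concentrations bracketing the appropriate inhibition level. At the GI50, growth is halved. At the TGI there is no net growth.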
# What was measured:
# Assay in all cases: DTP human tumour cell line panel, 48 h
# HCT-15 colon = system: HCT-15 colon
# SK-MEL-28 melanoma = system: SK-MEL-28 melanoma
# NCI-H23 lung = system: NCI-H23 lung
# RXF 393 renal = system: RXF 393 renal
# OVCAR-4 ovarian = system: OVCAR-4 ovarian
# SW-620 colon = system: SW-620 colon
# SNB-19 CNS = system: SNB-19 CNS
# U251 CNS = system: U251 CNS
# COLO 205 colon = system: COLO 205 colon
# K-562 leukemia = system: K-562 leukemia
SMILES,GI50 (HCT-15 colon) [µM],TGI (HCT-15 colon) [µM],GI50 (SK-MEL-28 melanoma) [µM],TGI (SK-MEL-28 melanoma) [µM],GI50 (NCI-H23 lung) [µM],TGI (NCI-H23 lung) [µM],GI50 (RXF 393 renal) [µM],TGI (RXF 393 renal) [µM],TGI (OVCAR-4 ovarian) [µM],TGI (SW-620 colon) [µM],TGI (SNB-19 CNS) [µM],TGI (U251 CNS) [µM],TGI (COLO 205 colon) [µM],TGI (K-562 leukemia) [µM],GI50 (OVCAR-4 ovarian) [µM],GI50 (SW-620 colon) [µM],GI50 (SNB-19 CNS) [µM],GI50 (U251 CNS) [µM],GI50 (COLO 205 colon) [µM],GI50 (K-562 leukemia) [µM]
CNC(=O)c1cc(Oc2cccc3nc(NC(=O)Nc4ccc(F)cc4F)ccc23)ccn1,0.302,> 50,1.42,> 50,2.4,> 50,1.24,2.99,–,–,–,–,–,–,–,–,–,–,–,–
COc1ccc(/C=C(\C2=NC(=O)CS2)c2nc3ccccc3[nH]2)cc1,–,> 100,–,> 100,–,> 100,–,6.81,> 100,> 100,> 100,> 100,> 100,> 100,–,–,–,–,–,–
c1ccc(Sc2nc(Sc3ccccc3)nc(Sc3ccccc3)n2)cc1,–,> 100,–,> 100,–,> 100,–,> 100,> 100,–,> 100,> 100,38.7,> 100,–,–,–,–,–,–
CN1CCN(Cn2nc(-c3cc(F)c(Cl)cc3Cl)oc2=S)CC1,39.7,> 100,28.6,> 100,76.5,> 100,32.5,93.8,> 100,39.4,> 100,> 100,51.6,> 100,30.9,20,35.2,35.1,23.6,41.4
COc1cccc2c1C(=O)c1c(O)c3c(c(O)c1C2=O)CC(O)(C(C)=O)CC3O (stereo not drawn),–,39.8,–,44.3,–,16.4,–,18.5,19.6,32.7,32.8,14.9,24.7,39.3,–,–,–,–,–,–
CN1C(=O)[C@@H]2[C@@H]3c4ccccc4N[C@@H]3c3[nH]c4ccccc4c3[C@@H]2C1=O,–,50.1,–,67.9,–,28.6,–,64.4,54.3,> 100,> 100,66.3,36.5,74.7,–,–,–,–,–,–
Cc1ccc(O)cc1 (tested in a mixture with another compound),–,> 100,–,> 100,–,> 100,–,> 100,> 100,> 100,> 100,> 100,> 100,> 100,–,–,–,–,–,–
CN(C)CCNC(=O)c1cccc2[nH]c(-c3ccc(Cl)cc3)nc12,–,19.9,–,31.9,–,21.5,–,21.3,21.2,18.3,31.5,18,9.29,12.6,–,–,–,–,–,–
O=P(Nc1cccc(Cl)c1)(Oc1ccccc1)N(CCCl)CCCl (stereo not drawn),–,28.7,–,30.5,–,31.8,–,–,25.4,30.7,–,28.3,29.3,> 100,–,–,–,–,–,–
Cc1cc2nc(CC(C(F)(F)F)C(F)(F)F)oc2cc1C,–,26.8,–,15.8,–,8.15,–,9.73,6.92,2.83,17.5,9.41,4.98,–,–,–,–,–,–,–
COCC1N=C(c2cc(OC)c(OC)c(OC)c2-c2cc3c(cc2[C@@H](C)O)OCO3)O[C@H]1c1ccccc1 (stereo partly drawn),–,> 100,–,> 100,–,> 100,–,> 91.6,> 100,> 100,> 100,> 100,> 100,> 100,–,–,–,–,–,–
Cc1ccc(S(=O)(=O)NCCCSCCO)cc1,–,> 100,–,> 100,–,> 100,–,> 100,> 100,> 100,> 100,> 100,> 100,> 100,–,–,–,–,–,–
O=c1[nH]c(-c2ccc(Cl)cc2)cc2ccsc12,–,> 100,–,> 100,–,> 100,–,> 100,> 100,> 100,7.71,> 100,> 100,> 100,–,–,–,–,–,–
CCOC(=O)C1=C(C)N(c2ccc(Cl)cc2)C2(O)C=CC(Nc3ccc(Cl)cc3)=C3C(=O)N(c4ccccc4)C(=O)C312 (stereo not drawn),–,16.3,–,6.89,–,20,–,–,15.1,14.6,52.3,39.5,7.2,> 100,–,–,–,–,–,–
